# In PubChem BioAssay AID2060483 (Molecular Pharmacology Branch, DTP, NCI, 2025):
# Test system: K24384-001-R-PDC complex spheroids, viability
# Experiment: Anticancer human tumor K24384-001-R-PDC patient-derived pancreatic adenocarcinoma cell line growth inhibition [GQUAD]
# Conditions: for IC50: curve of first compound; for viability, T/C: stronger effect = lower value
# Procedure, shortened: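 Multi-cell-type spheroids of tumor cells with HUVEC and mesenchymal stem cells, treated with drug combinations. Concentrations descend in half-log steps from near clinical Cmax, or from 10 microM where Cmax is unknown; viability read-out.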
# [1] = second compound 0.0316 µM, first compound 0.0316 µM
# [2] = second compound 0.0316 µM, first compound 0.1 µM
# [3] = second compound 0.0316 µM, first compound 0.316 µM
# [4] = second compound 0.0316 µM, first compound 1 µM
# [5] = second compound 0.0316 µM, first compound 3.16 µM
# [6] = second compound 0.0316 µM, first compound 10 µM
# [7] = second compound 0.1 µM, first compound 0.0316 µM
# [8] = second compound 0.1 µM, first compound 0.1 µM
# [9] = second compound 0.1 µM, first compound 0.316 µM
# [10] = second compound 0.1 µM, first compound 1 µM
# [11] = second compound 0.1 µM, first compound 3.16 µM
# [12] = second compound 0.1 µM, first compound 10 µM
# [13] = second compound 0.316 µM, first compound 0.0316 µM
# [14] = second compound 0.316 µM, first compound 0.1 µM
# [15] = second compound 0.316 µM, first compound 0.316 µM
# [16] = second compound 0.316 µM, first compound 1 µM
# [17] = second compound 0.316 µM, first compound 3.16 µM
# [18] = second compound 0.316 µM, first compound 10 µM
# [19] = second compound 1 µM, first compound 0.0316 µM
# [20] = second compound 1 µM, first compound 0.1 µM
# [21] = second compound 1 µM, first compound 0.316 µM
# [22] = second compound 1 µM, first compound 1 µM
# [23] = second compound 1 µM, first compound 3.16 µM
# [24] = second compound 1 µM, first compound 10 µM
# [25] = second compound 3.16 µM, first compound 0.0316 µM
# [26] = second compound 3.16 µM, first compound 0.1 µM
# [27] = second compound 3.16 µM, first compound 0.316 µM
# [28] = second compound 3.16 µM, first compound 1 µM
# [29] = second compound 3.16 µM, first compound 3.16 µM
# [30] = second compound 3.16 µM, first compound 10 µM
# [31] = second compound 10 µM, first compound 0.0316 µM
# [32] = second compound 10 µM, first compound 0.1 µM
# [33] = second compound 10 µM, first compound 0.316 µM
# [34] = second compound 10 µM, first compound 1 µM
# [35] = second compound 10 µM, first compound 3.16 µM
# [36] = second compound 10 µM, first compound 10 µM
# 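Note: spheroids exposed to compounds for seven days.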
compound,measurement,setting,value
C=CCn1c(=O)c2cnc(Nc3ccc(N4CCN(C)CC4)cc3)nc2n1-c1cccc(C(C)(C)O)n1 + Cc1cnc(CNC(=O)c2c(=O)c3ccc(N4CCCN(C)CC4)nc3n3c2sc2ccccc23)cn1,IC50,second compound 0.0316 µM,487 nM
same,IC50,second compound 0.1 µM,350 nM
same,IC50,second compound 0.316 µM,< 31.6 nM
same,IC50,second compound 1 µM,< 31.6 nM
same,IC50,second compound 3.16 µM,< 31.6 nM
same,IC50,second compound 10 µM,< 31.6 nM
same,"viability, T/C",[1],63.6%
same,"viability, T/C",[2],76.6%
same,"viability, T/C",[3],68.1%
same,"viability, T/C",[4],18.3%
same,"viability, T/C",[5],17.8%
same,"viability, T/C",[6],23.2%
same,"viability, T/C",[7],53.3%
same,"viability, T/C",[8],65.2%
same,"viability, T/C",[9],51.4%
same,"viability, T/C",[10],27.1%
same,"viability, T/C",[11],19.8%
same,"viability, T/C",[12],18.1%
same,"viability, T/C",[13],45.5%
same,"viability, T/C",[14],50.1%
same,"viability, T/C",[15],37.1%
same,"viability, T/C",[16],26.7%
same,"viability, T/C",[17],22.6%
same,"viability, T/C",[18],17.5%
same,"viability, T/C",[19],30.5%
same,"viability, T/C",[20],49.7%
same,"viability, T/C",[21],34.9%
same,"viability, T/C",[22],36.9%
same,"viability, T/C",[23],27.1%
same,"viability, T/C",[24],22.9%
same,"viability, T/C",[25],36.4%
same,"viability, T/C",[26],39.7%
same,"viability, T/C",[27],28.1%
same,"viability, T/C",[28],31.8%
same,"viability, T/C",[29],26%
same,"viability, T/C",[30],15.8%
same,"viability, T/C",[31],10%
same,"viability, T/C",[32],10.6%
same,"viability, T/C",[33],18%
same,"viability, T/C",[34],6.25%
same,"viability, T/C",[35],0.39%
same,"viability, T/C",[36],0.2%
CCCS(=O)(=O)Nc1ccc(F)c(C(=O)c2c[nH]c3ncc(-c4ccc(Cl)cc4)cc23)c1F + Cc1cnc(CNC(=O)c2c(=O)c3ccc(N4CCCN(C)CC4)nc3n3c2sc2ccccc23)cn1,IC50,second compound 0.0316 µM,8050 nM
same,IC50,second compound 0.1 µM,6380 nM
same,IC50,second compound 0.316 µM,> 10000 nM
same,IC50,second compound 1 µM,< 31.6 nM
same,IC50,second compound 3.16 µM,< 31.6 nM
same,IC50,second compound 10 µM,< 31.6 nM
same,"viability, T/C",[1],78%
same,"viability, T/C",[2],84.4%
same,"viability, T/C",[3],113%
same,"viability, T/C",[4],93.8%
same,"viability, T/C",[5],105%
same,"viability, T/C",[6],39.5%
same,"viability, T/C",[7],50.8%
same,"viability, T/C",[8],84.2%
same,"viability, T/C",[9],63.4%
same,"viability, T/C",[10],90.9%
same,"viability, T/C",[11],90.6%
same,"viability, T/C",[12],33.5%
same,"viability, T/C",[13],48.5%
same,"viability, T/C",[14],56.8%
same,"viability, T/C",[15],62%
same,"viability, T/C",[16],64.8%
same,"viability, T/C",[17],65.9%
same,"viability, T/C",[18],31.1%
same,"viability, T/C",[19],37.2%
same,"viability, T/C",[20],36%
same,"viability, T/C",[21],33.6%
same,"viability, T/C",[22],48.3%
same,"viability, T/C",[23],60.2%
same,"viability, T/C",[24],29%
same,"viability, T/C",[25],39.4%
same,"viability, T/C",[26],35.2%
same,"viability, T/C",[27],37.1%
same,"viability, T/C",[28],34.6%
same,"viability, T/C",[29],39.5%
same,"viability, T/C",[30],16.2%
same,"viability, T/C",[31],0.22%
same,"viability, T/C",[32],0.41%
same,"viability, T/C",[33],0.78%
same,"viability, T/C",[34],0.33%
same,"viability, T/C",[35],0.23%
same,"viability, T/C",[36],0.18%
Cc1[nH]c2ccccc2c1CCNCc1ccc(/C=C/C(=O)NO)cc1 + Cc1cnc(CNC(=O)c2c(=O)c3ccc(N4CCCN(C)CC4)nc3n3c2sc2ccccc23)cn1,IC50,second compound 0.0316 µM,118 nM
same,IC50,second compound 0.1 µM,79.4 nM
same,IC50,second compound 0.316 µM,39.5 nM
same,IC50,second compound 1 µM,< 0.999 nM
same,IC50,second compound 3.16 µM,< 0.999 nM
same,IC50,second compound 10 µM,< 0.999 nM
same,"viability, T/C","second compound 0.0316 µM, first compound 0.000999 µM",83.9%
same,"viability, T/C","second compound 0.0316 µM, first compound 0.00316 µM",75.8%
same,"viability, T/C","second compound 0.0316 µM, first compound 0.00999 µM",109%
same,"viability, T/C",[1],82.9%
same,"viability, T/C","second compound 0.0316 µM, first compound 0.0999 µM",57.4%
same,"viability, T/C",[3],6.49%
same,"viability, T/C","second compound 0.1 µM, first compound 0.000999 µM",65.4%
same,"viability, T/C","second compound 0.1 µM, first compound 0.00316 µM",81.2%
same,"viability, T/C","second compound 0.1 µM, first compound 0.00999 µM",74.7%
same,"viability, T/C",[7],57%
same,"viability, T/C","second compound 0.1 µM, first compound 0.0999 µM",48.9%
same,"viability, T/C",[9],5.15%
same,"viability, T/C","second compound 0.316 µM, first compound 0.000999 µM",45.5%
same,"viability, T/C","second compound 0.316 µM, first compound 0.00316 µM",54.4%
same,"viability, T/C","second compound 0.316 µM, first compound 0.00999 µM",63.1%
same,"viability, T/C",[13],44.8%
same,"viability, T/C","second compound 0.316 µM, first compound 0.0999 µM",45.6%
same,"viability, T/C",[15],1.86%
same,"viability, T/C","second compound 1 µM, first compound 0.000999 µM",41.3%
same,"viability, T/C","second compound 1 µM, first compound 0.00316 µM",41.8%
same,"viability, T/C","second compound 1 µM, first compound 0.00999 µM",37.3%
same,"viability, T/C",[19],37.3%
same,"viability, T/C","second compound 1 µM, first compound 0.0999 µM",28.2%
same,"viability, T/C",[21],0.15%
same,"viability, T/C","second compound 3.16 µM, first compound 0.000999 µM",33.8%
same,"viability, T/C","second compound 3.16 µM, first compound 0.00316 µM",33.3%
same,"viability, T/C","second compound 3.16 µM, first compound 0.00999 µM",35.4%
same,"viability, T/C",[25],34.6%
same,"viability, T/C","second compound 3.16 µM, first compound 0.0999 µM",13.5%
same,"viability, T/C",[27],0.12%
same,"viability, T/C","second compound 10 µM, first compound 0.000999 µM",0.27%
same,"viability, T/C","second compound 10 µM, first compound 0.00316 µM",0.26%
same,"viability, T/C","second compound 10 µM, first compound 0.00999 µM",0.28%
same,"viability, T/C",[31],0.32%
same,"viability, T/C","second compound 10 µM, first compound 0.0999 µM",0.26%
same,"viability, T/C",[33],0.21%
O=C(NO)c1cnc(N2CCN(S(=O)(=O)c3ccc4ccccc4c3)CC2)nc1 + Cc1cnc(CNC(=O)c2c(=O)c3ccc(N4CCCN(C)CC4)nc3n3c2sc2ccccc23)cn1,IC50,second compound 0.0316 µM,477 nM
same,IC50,second compound 0.1 µM,325 nM
same,IC50,second compound 0.316 µM,151 nM
same,IC50,second compound 1 µM,< 31.6 nM
same,IC50,second compound 3.16 µM,< 31.6 nM
same,IC50,second compound 10 µM,< 31.6 nM
same,"viability, T/C",[1],86.3%
same,"viability, T/C",[2],78%
same,"viability, T/C",[3],77.2%
same,"viability, T/C",[4],0.9%
same,"viability, T/C",[5],0.08%
same,"viability, T/C",[6],0.11%
same,"viability, T/C",[7],65.2%
same,"viability, T/C",[8],78.7%
same,"viability, T/C",[9],51.2%
same,"viability, T/C",[10],1.11%
same,"viability, T/C",[11],0.09%
same,"viability, T/C",[12],0.11%
same,"viability, T/C",[13],42.7%
same,"viability, T/C",[14],73%
same,"viability, T/C",[15],35.8%
same,"viability, T/C",[16],0.16%
same,"viability, T/C",[17],0.07%
same,"viability, T/C",[18],0.09%
same,"viability, T/C",[19],38.9%
same,"viability, T/C",[20],43.9%
same,"viability, T/C",[21],31.3%
same,"viability, T/C",[22],0.12%
same,"viability, T/C",[23],0.07%
same,"viability, T/C",[24],0.11%
same,"viability, T/C",[25],33.3%
same,"viability, T/C",[26],34.1%
same,"viability, T/C",[27],16.3%
same,"viability, T/C",[28],0.12%
same,"viability, T/C",[29],0.1%
same,"viability, T/C",[30],0.14%
same,"viability, T/C",[31],0.16%
same,"viability, T/C",[32],0.23%
same,"viability, T/C",[33],0.19%
same,"viability, T/C",[34],0.16%
same,"viability, T/C",[35],0.17%
same,"viability, T/C",[36],0.16%
